Reference: paper PMC10794144, “A novel antibiotic class targeting the lipopolysaccharide transporter” (Nature, 2024)
Converted amounts (≈) assume the structure as drawn.

Tested on: A. baumannii
Assay: microbe, parasite or virus in culture
In short: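 Values come from CLSI-guided (M07, M100) broth microdilution in CAMHB. Endpoint: lowest concentration halting growth, judged by naked eye or by OD600 plateau.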

Compound: CN1C(=O)[C@H](CCCCN)NC(=O)[C@H](CCCN)NCc2cccnc2Sc2c(Cl)ccc(Cl)c2CNC(=O)[C@@H]1Cc1c[nH]c2ccccc12 [RO7075573]
- MIC 100% (ROB08705, Study LGC293598): ≤0.06 µg/mL
- MIC 80% (ROB08705, Study LGC294355): ≤0.06 µg/mL
- MIC 100% (ROB08705, Study LGC294355): 32 µg/mL (≈ 43.3 µM)
- MIC 80% (ROB08705, Study LGC295147): 0.12 µg/mL (≈ 0.162 µM)
- MIC 100% (ROB08705, Study LGC295147): 1 µg/mL (≈ 1.35 µM)
- MIC 80% (ROB08705, Study LGC296813): ≤0.06 µg/mL
- MIC 100% (ROB08705, Study LGC296813): ≤0.06 µg/mL
- MIC 80% (ROB08705, Study LGC299544): 0.12 µg/mL (≈ 0.162 µM)
- MIC 100% (ROB08705, Study LGC299544): 0.12 µg/mL (≈ 0.162 µM)
- MIC 80% (ROB08705, Study LGC301026): ≤0.06 µg/mL
- MIC 100% (ROB08705, Study LGC301026): ≤0.06 µg/mL
- MIC 80% (ROB08705, Study LGC308175): ≤0.06 µg/mL
- MIC 100% (ROB08705, Study LGC308175): ≤0.06 µg/mL
- MIC 80% (ROB08705, Study ROC010): 0.12 µg/mL (≈ 0.162 µM)
- MIC 100% (ROB08705, Study ROC010): 64 µg/mL (≈ 86.5 µM)
- MIC 80% (ROB08705, Study ROC012): ≤0.06 µg/mL
- MIC 100% (ROB08705, Study ROC012): 0.12 µg/mL (≈ 0.162 µM)
- MIC 80% (ROB08706, Study LGC281440): 0.25 µg/mL (≈ 0.338 µM)
- MIC 100% (ROB08706, Study LGC281440): 16 µg/mL (≈ 21.6 µM)
- MIC 80% (ROB08706, Study LGC282160): 0.25 µg/mL (≈ 0.338 µM)
- MIC 100% (ROB08706, Study LGC282160): 64 µg/mL (≈ 86.5 µM)
- MIC 80% (ROB08706, Study LGC284879): 1 µg/mL (≈ 1.35 µM)
- MIC 100% (ROB08706, Study LGC284879): >64 µg/mL
- MIC 80% (ROB08706, Study LGC285582): 0.25 µg/mL (≈ 0.338 µM)
- MIC 100% (ROB08706, Study LGC285582): 64 µg/mL (≈ 86.5 µM)
- MIC 80% (ROB08706, Study LGC286210): 0.5 µg/mL (≈ 0.676 µM)
- MIC 100% (ROB08706, Study LGC286210): 64 µg/mL (≈ 86.5 µM)
- MIC 80% (ROB08706, Study LGC293598): 0.5 µg/mL (≈ 0.676 µM)
- MIC 100% (ROB08706, Study LGC293598): >64 µg/mL
- MIC 80% (ROB08706, Study LGC294355): 0.5 µg/mL (≈ 0.676 µM)
- MIC 100% (ROB08706, Study LGC294355): >64 µg/mL
- MIC 80% (ROB08706, Study LGC295147): 0.25 µg/mL (≈ 0.338 µM)
- MIC 100% (ROB08706, Study LGC295147): 64 µg/mL (≈ 86.5 µM)
- MIC 80% (ROB08706, Study LGC296813): 0.5 µg/mL (≈ 0.676 µM)
- MIC 100% (ROB08706, Study LGC296813): 64 µg/mL (≈ 86.5 µM)
- MIC 80% (ROB08706, Study LGC299544): 0.5 µg/mL (≈ 0.676 µM)
- MIC 100% (ROB08706, Study LGC299544): 64 µg/mL (≈ 86.5 µM)
- MIC 80% (ROB08706, Study LGC301026): 0.5 µg/mL (≈ 0.676 µM)
- MIC 100% (ROB08706, Study LGC301026): 64 µg/mL (≈ 86.5 µM)
- MIC 80% (ROB08706, Study LGC308175): 0.5 µg/mL (≈ 0.676 µM)
- MIC 100% (ROB08706, Study LGC308175): 64 µg/mL (≈ 86.5 µM)
- MIC 80% (ROB08706, Study ROC010): 0.5 µg/mL (≈ 0.676 µM)
- MIC 100% (ROB08706, Study ROC010): 0.5 µg/mL (≈ 0.676 µM)
- MIC 80% (ROB08706, Study ROC012): 0.5 µg/mL (≈ 0.676 µM)
- MIC 100% (ROB08706, Study ROC012): 32 µg/mL (≈ 43.3 µM)
- MIC 80% (ROB08707, Study LGC281440): ≤0.06 µg/mL
- MIC 100% (ROB08707, Study LGC281440): 16 µg/mL (≈ 21.6 µM)
- MIC 80% (ROB08707, Study LGC282160): 0.12 µg/mL (≈ 0.162 µM)
- MIC 100% (ROB08707, Study LGC282160): 64 µg/mL (≈ 86.5 µM)
- MIC 80% (ROB08707, Study LGC284879): 0.12 µg/mL (≈ 0.162 µM)
- MIC 100% (ROB08707, Study LGC284879): >64 µg/mL
- MIC 80% (ROB08707, Study LGC285582): 0.12 µg/mL (≈ 0.162 µM)
- MIC 100% (ROB08707, Study LGC285582): 64 µg/mL (≈ 86.5 µM)
- MIC 80% (ROB08707, Study LGC286210): 0.12 µg/mL (≈ 0.162 µM)
- MIC 100% (ROB08707, Study LGC286210): 64 µg/mL (≈ 86.5 µM)
- MIC 80% (ROB08707, Study LGC293598): ≤0.06 µg/mL
- MIC 100% (ROB08707, Study LGC293598): >64 µg/mL
- MIC 80% (ROB08707, Study LGC294355): 0.12 µg/mL (≈ 0.162 µM)
- MIC 100% (ROB08707, Study LGC294355): >64 µg/mL
- MIC 80% (ROB08707, Study LGC295147): 0.12 µg/mL (≈ 0.162 µM)
- MIC 100% (ROB08707, Study LGC295147): 64 µg/mL (≈ 86.5 µM)
- MIC 80% (ROB08707, Study LGC296813): 0.12 µg/mL (≈ 0.162 µM)
- MIC 100% (ROB08707, Study LGC296813): 64 µg/mL (≈ 86.5 µM)
- MIC 80% (ROB08707, Study LGC299544): 0.12 µg/mL (≈ 0.162 µM)
- MIC 100% (ROB08707, Study LGC299544): 64 µg/mL (≈ 86.5 µM)
- MIC 80% (ROB08707, Study LGC301026): 0.25 µg/mL (≈ 0.338 µM)
- MIC 100% (ROB08707, Study LGC301026): 64 µg/mL (≈ 86.5 µM)
- MIC 80% (ROB08707, Study LGC308175): ≤0.06 µg/mL
- MIC 100% (ROB08707, Study LGC308175): 64 µg/mL (≈ 86.5 µM)
- MIC 80% (ROB08707, Study ROC010): 0.12 µg/mL (≈ 0.162 µM)
- MIC 100% (ROB08707, Study ROC010): 0.12 µg/mL (≈ 0.162 µM)
- MIC 80% (ROB08707, Study ROC012): 0.12 µg/mL (≈ 0.162 µM)
- MIC 100% (ROB08707, Study ROC012): 32 µg/mL (≈ 43.3 µM)
- MIC 80% (ROB08708, Study LGC281440): ≤0.06 µg/mL
- MIC 100% (ROB08708, Study LGC281440): 16 µg/mL (≈ 21.6 µM)
- MIC 80% (ROB08708, Study LGC282160): 0.12 µg/mL (≈ 0.162 µM)
- MIC 100% (ROB08708, Study LGC282160): 64 µg/mL (≈ 86.5 µM)
- MIC 80% (ROB08708, Study LGC284879): 0.12 µg/mL (≈ 0.162 µM)
- MIC 100% (ROB08708, Study LGC284879): >64 µg/mL
- MIC 80% (ROB08708, Study LGC285582): ≤0.06 µg/mL
- MIC 100% (ROB08708, Study LGC285582): 64 µg/mL (≈ 86.5 µM)
- MIC 80% (ROB08708, Study LGC286210): 0.12 µg/mL (≈ 0.162 µM)
- MIC 100% (ROB08708, Study LGC286210): 64 µg/mL (≈ 86.5 µM)
- MIC 80% (ROB08708, Study LGC293598): ≤0.06 µg/mL
- MIC 100% (ROB08708, Study LGC293598): >64 µg/mL
- MIC 80% (ROB08708, Study LGC294355): 0.12 µg/mL (≈ 0.162 µM)
